Experimental data: EP4786487A1, “PEPTIDE” (Peptidream Inc, priority 2023, dated 2025)
Starred links: 1 amine or outer side, 2 acyl side, 3 side chain; linkers in the order of their positions; H or OH if unused. Positions of bridges follow the written chain, without caps; N, C: chain ends. Non-standard residues stand in square brackets, D forms with d. Residues, ends and D or L forms follow the SMILES beside them. Phe(3-OCH2COOH) = N[C@@H](Cc1cccc(OCC(=O)O)c1)C(=O)O; Phe(4-COOH) = N[C@@H](Cc1ccc(C(=O)O)cc1)C(=O)O; Gly(N(CH2)3COOH) = O=C(O)CCCNCC(=O)O; X1 = CCCCCCC[C@H](N[*:1])C(=O)[*:2]; NMeF = CN[C@@H](Cc1ccccc1)C(=O)O; NMeA = CN[C@@H](C)C(=O)O

Assays:
DBA/2 mdx model mice = test: Subcutaneously administered peptide, improvement of muscle strength in DBA/2 mdx mice; format: in vivo, DBA/2N-mdx mice; details: Fig. 5
Method: In this Example, the effect of the peptide Myostatin_99_v145 (SEQ ID NO: 30) was evaluated on improvement of muscle strength in DMD model mice.
To twenty-week-old female DBA/2N-mdx mice (Central Institute for Experimental Medicine and Life Science), Myostatin_99_v145 or solvent control (PBS) was subcutaneously administered once a week for 4 weeks as shown in Table 12. As a Comparative Example, a single intravenous dose of anti-latent myostatin antibody (GYM329-BS) was administered.
(§1) Using a smart-type grip strength meter for rats and mice (MK-380V; Muromachi Kikai Co., Ltd.), forelimb and hindlimb grip strength measurements were performed on the day of completion of the acclimation period (grouping day), and on Days 7, 14, 21, and 26. The measurements were conducted with individual identification numbers blinded so that the examiner was unaware of the test conditions of the mice. The grip strength was measured seven times consecutively, and the average of five points, excluding the two points: the highest and lowest values, was used as individual data.

B10-mdx mice = test: Orally administered peptide, improvement of muscle strength in B10-mdx mice; format: in vivo, C57BL/10-mdx/Jcl mice; details: oral administration 65 and 200 mg/kg once a week, 4 times, after fasting; Fig. 6
Method: In this Example, the effect of the peptide Myostatin_99_v145 (SEQ ID NO: 30) was evaluated on improvement of muscle strength when the peptide was orally administered to DMD model mice.
B10-mdx mice were used as the DMD model mice. To five-week-old female C57BL/10-mdx/Jcl mice (CLEA Japan, Inc.; NPL 17), the peptide or solvent control (Vehicle) PBS was subcutaneously administered once a week for 4 weeks. In addition, the peptide or the solvent control, namely 30% Labrasol/PBS, was administered orally to the DMD model mice once a week after fasting in a total of 4 times.
as §1, with “day; 5-week-old),” for “day),”, “Day 7 (6-week-old), Day 14 (7-week-old), Day 20 (8-week-old),” for “Days 7, 14, 21,”, “Day 27 (9-week-old).” for “26.”

Myostatin [1] = biological target: T1, Myostatin (Homo sapiens, UniProt O14793); test: Reporter gene assay for myostatin signaling in HepG2 cell line, Evaluation Procedure (1), myostatin inhibition; format: cell-based; details: Method A: Myostatin 10 ng/mL; read-out: IC50 (Luciferase) Myostatin HepG2
T1 construct: active myostatin (also called mature myostatin) is a homodimer consisting of two C-terminal growth factor domains; purchased R&D systems 788-G8/CF
T1 sequence (O14793 267-375): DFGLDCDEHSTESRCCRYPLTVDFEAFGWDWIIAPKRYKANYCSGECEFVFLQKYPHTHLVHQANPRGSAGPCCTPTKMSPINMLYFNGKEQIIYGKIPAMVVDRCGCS
In short: (§2)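 IC50 derived from One-Glo luciferase luminescence after 20–24 h at 37 °C. Peptides titrated 4-fold at 0.006–100 nmol/L against myostatin or 0.12–2000 nmol/L against GDF-11 in HepG2 cells carrying a transfected CAGA12-luciferase reporter, kept in 0.1% BSA EMEM.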

Myostatin [2] = test: as above; format: cell-based; details: Method A; GDF-11 IC50 versus Myostatin IC50
In short: as §2

IC50 (Myostatin [1]): 1.6 nM
Structure (SMILES): CCCCCCC[C@@H]1NC(=O)[C@H](Cc2ccccc2)N(C)C(=O)[C@H](CCCNC(=N)N)NC(=O)[C@H](Cc2ccc(C(=O)O)cc2)NC(=O)[C@H](Cc2cccc(OCC(=O)O)c2)NC(=O)[C@H](C)N(C)C(=O)[C@H]([C@@H](C)CC)NC(=O)[C@H](Cc2ccccc2)N(C)C(=O)[C@H](Cc2ccc(O)cc2)NC(=O)[C@H](Cc2c[nH]c3ccccc23)NC(=O)[C@H](C)NC(=O)CN(CCCC(=O)O)C(=O)CSC[C@H](C(=O)O)NC(=O)[C@H](Cc2ccccc2)N(C)C(=O)[C@H](C)N(C)C1=O [Myostatin_99_v145] ({CH2CO}-[Gly(N(CH2)3COOH)]AWY[NMeF]I[NMeA][Phe(3-OCH2COOH)][Phe(4-COOH)]R[NMeF][X1][NMeA][NMeF][dC]-OH; thioether N-15)
time-course change in grip strength (DBA/2 mdx model mice; 1 and 3 mg/kg subcutaneous once a week for 4 weeks, vs. PBS Vehicle group): continuous increase in grip strength was observed in a dose-dependent manner
maximum effect (grip strength) compared with GYM329-BS (DBA/2 mdx model mice; GYM329-BS 10 mg/kg single intravenous dose): higher than that of GYM329-BS
time-course change in grip strength (B10-mdx mice): continuous increase in grip strength was observed in a dose-dependent manner
Selectivity (Myostatin [2]): 259
